Key:
[1] = tested on: MDA-MB-435 breast cancer cell line; assay: MTT cytotoxicity assay, MDA-MB-435; format: cell-based, human; settings: Homo sapiens, MDA-MB-435, 72 h, 72 h exposure
Description: (§1) The human breast cancer cell line MDA-MB-435 and the colon cancer cell line HT29 were purchased from the American Type Cell Culture (Manassas, Va.). Colon cancer cell lines HCT116 p53^+/+ and HCT116 p53^−/− were kindly provided by Dr. Bert Vogelstein (Johns Hopkins Medical Institutions, Baltimore, Md.). The human ovarian carcinoma cell line (HEY), naturally resistant to cisplatin (CDDP), was kindly provided by Dr. Louis Dubeau (USC Norris Cancer Center). The bladder cancer cell lines were kindly provided by Dr. Richard Cote (USC Keck School of Medicine). Cells were maintained as monolayer cultures in the appropriate media: RPMI-1640 (HT29, HCT116 p53^+/+, HCT116 p53^−/−, and HEY cell lines) or DMEM (MDA-MB-435 and UMUC3 cell lines) supplemented with 10% fetal bovine serum (FBS) (HyClone, Road Logan, Utah) at 37° C. in a humidified atmosphere of 5% CO2. To remove the adherent cells from the flask for subculture and counting, cells were washed with PBS without calcium or magnesium, incubated with a small volume of 1×trypsin-EDTA solution (Sigma-Aldrich, St. Louis, Mo.) for 5 min, resuspended with fresh culture medium, and centrifuged at 1200 rpm for 5 min. All experiments were performed using cells in exponential growth phase. Cells were routinely checked for Mycoplasma contamination using PlasmaTest kit (InvivoGen, San Diego, Calif.).
(§2) Cytotoxicity was assessed by MTT assay as described previously. 43 In brief, cells were seeded in 96-well microtiter plates and allowed to attach overnight. Cells were subsequently treated with continuous exposure to corresponding drugs for 72 h. At the end of treatments, an MTT solution (at a final concentration of 0.5 mg/mL) was added to each well, and cells were incubated for 4 h at 37° C. After removal of the supernatant, DMSO was added, and the absorbance was read at 570 nm. All assays were done in triplicate. The IC50 was then determined for each drug from a plot of log(drug concentration) versus percentage of cells killed.

[2] = tested on: HCT116 p53^−/− colon cancer cell line; assay: MTT cytotoxicity assay, HCT116 p53-/-; format: cell-based; settings: Homo sapiens, HCT-116, 72 h exposure
Description: as §1, §2

[3] = tested on: HEY ovarian cancer cell line; assay: Cytotoxicity assay, HEY; format: cell-based; settings: Homo sapiens
Description: as §1, §2

[4] = tested on: doxorubicin-resistant NCI/ADR-RES ovarian cancer cell line; assay: Cytotoxicity assay, NCI/ADR-RES; format: cell-based; settings: Homo sapiens
Protocol: as §2

[5] = tested on: UMUC3 bladder cancer cell line; assay: MTT cytotoxicity assay, UMUC3; format: cell-based; settings: Homo sapiens, 72 h exposure
Description: as §1, §2

[6] = tested on: HCT116 p53^+/+ colon cancer cell line; assay: MTT cytotoxicity assay, HCT116 p53+/+; format: cell-based; settings: Homo sapiens, HCT-116, 72 h exposure
Description: as §1, §2

[7] = tested on: HT29 colon cancer cell line; assay: MTT cytotoxicity assay, HT29; format: cell-based; settings: Homo sapiens, HT-29, 72 h exposure
Description: as §1, §2

[8] = tested on: 5637 bladder cancer cell line; assay: MTT cytotoxicity assay, 5637; format: cell-based, human; settings: Homo sapiens, 72 h exposure
Description: as §1, §2

[9] = tested on: OVCAR8 ovarian cancer cell line; assay: In vitro cytotoxicity, OVCAR8; format: cell-based; settings: Homo sapiens, OVCAR-8; Table 4, ovarian cancer panel
Protocol: as §2

[10] = tested on: OVCAR3 ovarian cancer cell line; assay: In vitro cytotoxicity, OVCAR3; format: cell-based; settings: Homo sapiens, OVCAR-3; Table 4, ovarian cancer panel
Protocol: as §2

Compound | IC50 ([4]; Table 4, ovarian cancer panel) | IC50 [9] | IC50 [10] | other results
C#CC(=O)N(c1ccccc1F)C(C(=O)NC1CCCCC1)c1ccccc1F (stereo not drawn) [Compound 19, N-[2-(Cyclohexylamino)-1-(2-fluorophenyl)-2-oxoethyl]-N-(2-fluorophenyl)Propynamide] |  |  |  | IC50 [1]: 6500 ± 2100 nM; IC50 [2]: 10100 ± 2900 nM; IC50 ([3]; MTT, 72 h exposure (Table 2)): 5600 ± 2100 nM; IC50 ([4]; MTT, 72 h exposure (Table 2)): 400 ± 100 nM; IC50 [5]: > 20000 nM; IC50 [6]: 11900 ± 100 nM; IC50 [7]: 7700 ± 500 nM; IC50 [8]: 2100 nM
C#CC(=O)N(c1ccc(-n2cnnn2)c(C)c1)C(C(=O)NCC(=O)OCC)c1ccccc1F (stereo not drawn) [Compound 20] | 1300 nM | 200 nM |  | 
C#CC(=O)N(c1ccc(-n2cnnn2)c(C)c1)C(C(=O)NC1CCCC1)c1c(F)c(F)c(F)c(F)c1F (stereo not drawn) [Compound 24] | 450 nM | 5000 nM | 600 nM | 
C#CC(=O)N(C)C(C(=O)NC1CCCC1)c1cccs1 (stereo not drawn) [Compound 25] | 320 nM | 2200 nM | 530 nM | 
C#CC(=O)N(c1cccc(O)c1)C(C(=O)NC1CCCC1)c1cccs1 (stereo not drawn) [Compound 26] | 320 nM | 2200 nM | 1500 nM | 
C#CC(=O)N(c1cc(OC)c(OC)c(OC)c1)C(C(=O)NC1CCCC1)c1cccs1 (stereo not drawn) [Compound 27] | 330 nM | 2200 nM | 420 nM | 
C#CC(=O)N(CC(=O)NC1CCCC1)c1ccc(OC)cc1OC [Compound 28] | 20 nM | 520 nM | 230 nM | 
C#CC(=O)N(CC(N)=O)c1ccc(OC)cc1OC [Compound 29] |  | 500 ± 300 nM |  | 
C#CC(=O)N(CC(=O)NC1CCCC1)c1ccc(-n2cnnn2)c(C)c1 [Compound 30] | 1800 nM | 10000 nM | 3000 nM | 
C#CC(=O)N(c1ccc(-n2cnnn2)c(C)c1)C(C(=O)NC1CCCC1)c1cccnc1 (stereo not drawn) [Compound 31] | 2500 nM | 1500 nM | 2500 nM | 
C#CC(=O)N(c1ccc(O)cc1OC)C(C(=O)NCC(=O)OCC)c1cccs1 (stereo not drawn) [Compound 40] | 12800 ± 3800 nM | 10400 ± 1600 nM |  | 
C#CC(=O)N(c1ccc(OC)cc1OC)C(C(=O)NCC(=O)OCC)c1ccccc1 (stereo not drawn) [Compound 41] |  | 400 ± 200 nM |  | 
C#CC(=O)N(Cc1ccc(OC)cc1OC)C(C(=O)NCC(=O)OCC)c1ccccc1 (stereo not drawn) [Compound 42] |  | 3400 ± 400 nM |  | 
C#CC(=O)N(c1ccc(OC)cc1OC)C(C(=O)NCC(=O)NCCN1CCOCC1)c1cccs1 (stereo not drawn) [Compound 45] | > 10000 nM | 5000 nM |  | IC50 ([3]; Table 4, ovarian cancer panel): 320 nM

From patent US20130071328A1, “Propynoic Acid Carbamoyl Methyl-Amides and Pharmaceutical Compositions and Methods Based Thereon” (UNIVERSITY OF SOUTHERN CALIFORNIA, priority 2011, published 2013)
